Measured values taken from ChEMBL document CHEMBL5038633 (J Med Chem, 2022).
Where a SMILES comes first, the peptide text is derived from it. Bridges are numbered along the chain shown (N, C = ends). [ ]: non-standard residue; d: D form. Abu(4,4,4-F3) = N[C@@H](CC(F)(F)F)C(=O)O; Cha = N[C@@H](CC1CCCCC1)C(=O)O; Chg = N[C@H](C(=O)O)C1CCCCC1

Legend:
[1] = target: Sodium channel protein type 8 subunit alpha (Homo sapiens, UniProt Q9UQD0); assay: Inhibition of human Nav1.6 stably expressed in cells with train pulses to -20 mV at 0.1 Hz and holding potential of -85 mV by whole-cell Qube-automated patch clamp assay; type: cell-based
Sodium channel protein type 8 subunit alpha, sequence (Q9UQD0 whole entry): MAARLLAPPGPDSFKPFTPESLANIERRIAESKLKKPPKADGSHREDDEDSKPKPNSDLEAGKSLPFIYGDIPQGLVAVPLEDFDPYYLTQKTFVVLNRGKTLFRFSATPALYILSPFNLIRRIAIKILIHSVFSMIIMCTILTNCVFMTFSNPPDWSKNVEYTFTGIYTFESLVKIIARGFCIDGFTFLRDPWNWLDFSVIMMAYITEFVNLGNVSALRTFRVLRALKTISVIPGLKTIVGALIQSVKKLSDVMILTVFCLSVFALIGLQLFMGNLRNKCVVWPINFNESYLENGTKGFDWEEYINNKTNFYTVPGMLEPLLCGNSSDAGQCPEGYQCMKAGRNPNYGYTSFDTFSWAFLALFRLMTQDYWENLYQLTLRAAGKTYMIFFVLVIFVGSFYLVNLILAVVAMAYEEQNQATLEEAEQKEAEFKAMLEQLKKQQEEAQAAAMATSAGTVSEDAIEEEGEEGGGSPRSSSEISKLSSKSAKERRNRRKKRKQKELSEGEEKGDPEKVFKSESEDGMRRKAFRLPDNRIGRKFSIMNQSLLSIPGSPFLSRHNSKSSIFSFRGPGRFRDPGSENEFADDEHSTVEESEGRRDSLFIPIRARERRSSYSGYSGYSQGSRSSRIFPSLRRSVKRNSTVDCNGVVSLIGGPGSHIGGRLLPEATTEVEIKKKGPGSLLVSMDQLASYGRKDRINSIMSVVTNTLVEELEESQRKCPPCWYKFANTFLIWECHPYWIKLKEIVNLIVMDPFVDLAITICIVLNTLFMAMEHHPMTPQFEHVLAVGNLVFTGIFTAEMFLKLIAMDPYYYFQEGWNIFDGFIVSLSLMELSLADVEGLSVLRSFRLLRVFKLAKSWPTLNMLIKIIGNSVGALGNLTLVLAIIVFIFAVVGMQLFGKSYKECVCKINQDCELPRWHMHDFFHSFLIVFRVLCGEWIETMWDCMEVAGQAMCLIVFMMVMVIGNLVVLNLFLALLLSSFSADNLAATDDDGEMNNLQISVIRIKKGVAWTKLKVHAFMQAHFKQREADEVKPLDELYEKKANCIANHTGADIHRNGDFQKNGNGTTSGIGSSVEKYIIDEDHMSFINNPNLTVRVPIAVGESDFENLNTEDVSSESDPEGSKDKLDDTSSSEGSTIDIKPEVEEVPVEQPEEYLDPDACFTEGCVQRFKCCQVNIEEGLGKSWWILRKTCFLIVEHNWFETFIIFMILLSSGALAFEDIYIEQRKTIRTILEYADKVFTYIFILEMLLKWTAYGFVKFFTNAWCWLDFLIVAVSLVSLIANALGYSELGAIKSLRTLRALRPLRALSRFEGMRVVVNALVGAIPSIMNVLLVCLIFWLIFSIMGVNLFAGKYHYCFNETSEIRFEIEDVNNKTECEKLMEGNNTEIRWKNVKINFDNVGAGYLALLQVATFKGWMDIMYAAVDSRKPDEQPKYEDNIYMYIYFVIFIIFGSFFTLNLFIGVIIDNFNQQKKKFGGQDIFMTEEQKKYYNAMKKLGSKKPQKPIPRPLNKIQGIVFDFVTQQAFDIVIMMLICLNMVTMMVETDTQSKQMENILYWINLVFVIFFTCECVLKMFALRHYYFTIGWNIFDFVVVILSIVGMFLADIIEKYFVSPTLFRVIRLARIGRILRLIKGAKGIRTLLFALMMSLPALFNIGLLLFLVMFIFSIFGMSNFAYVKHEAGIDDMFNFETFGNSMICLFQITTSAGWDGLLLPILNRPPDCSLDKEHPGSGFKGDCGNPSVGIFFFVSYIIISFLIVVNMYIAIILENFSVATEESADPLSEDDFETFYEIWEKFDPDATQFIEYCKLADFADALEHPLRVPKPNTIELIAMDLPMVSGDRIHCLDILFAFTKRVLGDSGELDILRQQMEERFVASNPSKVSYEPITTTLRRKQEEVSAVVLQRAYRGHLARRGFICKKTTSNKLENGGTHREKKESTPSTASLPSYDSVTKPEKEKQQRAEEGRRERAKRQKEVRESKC

[2] = Inhibition of mast cell degranulation in Wistar Han rat peritoneal lavage mast cells assessed as inhibition histamine release by measuring lowest concentration at which histamine release observed measured after 30 mins; type: functional; conditions: 0.5 h
[3] = target: Sodium channel protein type 9 subunit alpha (Homo sapiens, UniProt Q15858); assay: Inhibition of human Nav1.7 stably expressed in cells with train pulses to -20 mV at 0.1 Hz and holding potential of -95 mV by Qube-automated patch clamp assay; type: cell-based
[4] = target: Sodium channel protein type 4 subunit alpha (Homo sapiens, UniProt P35499); assay: Inhibition of human Nav1.4 stably expressed in cells with train pulses to -20 mV at 0.1 Hz and holding potential of -95 mV by whole-cell Qube-automated patch clamp assay; type: cell-based
Sodium channel protein type 4 subunit alpha, sequence (P35499 whole entry): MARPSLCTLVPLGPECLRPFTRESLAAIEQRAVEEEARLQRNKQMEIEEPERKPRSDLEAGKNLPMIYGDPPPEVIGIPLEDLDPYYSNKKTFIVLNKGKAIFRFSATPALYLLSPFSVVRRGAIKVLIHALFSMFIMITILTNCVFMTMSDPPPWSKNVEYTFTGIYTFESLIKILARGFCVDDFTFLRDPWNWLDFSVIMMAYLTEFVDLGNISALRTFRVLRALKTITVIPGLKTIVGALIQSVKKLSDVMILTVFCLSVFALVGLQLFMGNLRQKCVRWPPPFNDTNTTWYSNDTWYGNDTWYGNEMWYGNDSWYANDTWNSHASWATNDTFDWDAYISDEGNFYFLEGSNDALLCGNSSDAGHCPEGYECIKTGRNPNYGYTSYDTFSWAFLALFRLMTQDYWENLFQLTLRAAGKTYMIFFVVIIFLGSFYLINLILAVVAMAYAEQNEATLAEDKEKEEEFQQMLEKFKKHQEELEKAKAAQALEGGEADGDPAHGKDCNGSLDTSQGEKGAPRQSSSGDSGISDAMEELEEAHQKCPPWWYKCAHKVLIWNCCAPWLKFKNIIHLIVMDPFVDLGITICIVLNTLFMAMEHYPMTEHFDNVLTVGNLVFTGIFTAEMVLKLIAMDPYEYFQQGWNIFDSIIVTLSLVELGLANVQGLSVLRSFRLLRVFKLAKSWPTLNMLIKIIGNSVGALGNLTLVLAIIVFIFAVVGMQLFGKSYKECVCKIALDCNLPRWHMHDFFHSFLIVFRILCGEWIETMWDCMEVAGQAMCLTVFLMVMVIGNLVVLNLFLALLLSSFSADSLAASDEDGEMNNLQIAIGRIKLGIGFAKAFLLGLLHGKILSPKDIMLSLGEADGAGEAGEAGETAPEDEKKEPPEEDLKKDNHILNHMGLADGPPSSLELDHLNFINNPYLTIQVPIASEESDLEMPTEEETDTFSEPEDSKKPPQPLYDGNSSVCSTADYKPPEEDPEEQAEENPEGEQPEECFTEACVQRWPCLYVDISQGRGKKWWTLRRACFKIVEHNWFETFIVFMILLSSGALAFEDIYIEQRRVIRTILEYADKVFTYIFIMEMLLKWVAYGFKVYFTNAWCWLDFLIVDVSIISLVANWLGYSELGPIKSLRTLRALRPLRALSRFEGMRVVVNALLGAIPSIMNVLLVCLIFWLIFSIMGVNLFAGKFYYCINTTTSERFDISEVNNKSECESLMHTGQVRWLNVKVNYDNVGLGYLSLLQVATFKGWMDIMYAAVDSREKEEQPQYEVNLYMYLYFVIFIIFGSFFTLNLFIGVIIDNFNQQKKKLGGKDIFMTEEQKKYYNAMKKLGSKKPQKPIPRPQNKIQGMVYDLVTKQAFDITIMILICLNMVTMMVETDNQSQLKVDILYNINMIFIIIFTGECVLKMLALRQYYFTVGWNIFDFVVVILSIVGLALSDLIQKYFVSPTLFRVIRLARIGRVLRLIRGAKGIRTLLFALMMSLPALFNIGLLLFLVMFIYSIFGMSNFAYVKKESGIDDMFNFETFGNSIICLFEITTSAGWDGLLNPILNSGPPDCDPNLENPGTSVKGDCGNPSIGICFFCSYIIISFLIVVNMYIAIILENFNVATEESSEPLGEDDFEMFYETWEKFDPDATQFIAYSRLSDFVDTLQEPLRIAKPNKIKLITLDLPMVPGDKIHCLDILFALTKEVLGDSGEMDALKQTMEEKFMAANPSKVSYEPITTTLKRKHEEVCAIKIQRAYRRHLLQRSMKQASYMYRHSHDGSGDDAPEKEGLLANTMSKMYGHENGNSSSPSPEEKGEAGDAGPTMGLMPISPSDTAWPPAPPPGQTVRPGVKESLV

CC(=O)N[C@H]1CSSC[C@@H]2NC(=O)[C@@H]3CSSC[C@@H](C(=O)N[C@@H](CCCCN)C(=O)N[C@@H](CCCCN)C(=O)N[C@@H](CCCCN)C(=O)N[C@@H](CC(C)C)C(=O)N[C@@H](Cc4c[nH]c5ccccc45)C(N)=O)NC(=O)[C@H](Cc4c[nH]c5ccccc45)NC(=O)[C@H](CC(C)C)NC(=O)[C@H](C(C)C)NC(=O)[C@H](CSSC[C@H](NC(=O)[C@@H]4CCCN4C(=O)[C@H](C)NC(=O)[C@H](CC(C)C)NC(=O)[C@H](Cc4ccccc4)NC(=O)[C@H](CCCCN)NC(=O)[C@H](CCC(N)=O)NC1=O)C(=O)N[C@@H](CC(=O)O)C(=O)N[C@@H](CO)C(=O)N[C@@H](CCC(=O)O)C(=O)N[C@@H](CCCNC(=N)N)C(=O)N[C@@H](CCCCN)C(=O)N3)NC(=O)[C@H](CCC(=O)O)NC(=O)[C@H](CC(C)C)NC(=O)CNC(=O)[C@H](CCC(=O)O)NC2=O (Ac-CQKFLAPCDSERKCCEGLECVLWCKKKLW-NH2; disulfide 1-15, 8-20, 14-24)
IC50 [1]: > 17000 nM | LED [2]: 30 µM | IC50 [3]: 232 nM | IC50 [4]: > 17000 nM

CC(=O)N[C@H]1CSSC[C@@H]2NC(=O)[C@@H]3CSSC[C@@H](C(=O)N[C@@H](CCCCN)C(=O)N[C@@H](CCCCN)C(=O)N[C@@H](CCCCN)C(=O)N[C@@H](CC(C)C)C(=O)N[C@@H](Cc4c[nH]c5ccccc45)C(N)=O)NC(=O)[C@H](Cc4c[nH]c5ccccc45)NC(=O)[C@H](CC(C)C)NC(=O)[C@H](CCCNC(=N)N)NC(=O)[C@H](CSSC[C@H](NC(=O)[C@@H]4CCCN4C(=O)[C@H](C)NC(=O)[C@H](CC(C)C)NC(=O)[C@H](Cc4ccccc4)NC(=O)[C@H](CCCCN)NC(=O)[C@H](CCC(N)=O)NC1=O)C(=O)N[C@@H](CC(=O)O)C(=O)N[C@@H](CO)C(=O)N[C@@H](CCC(=O)O)C(=O)N[C@@H](CCCNC(=N)N)C(=O)N[C@@H](CCCCN)C(=O)N3)NC(=O)[C@H](C(C)C)NC(=O)[C@H](CC(C)C)NC(=O)CNC(=O)[C@H](CCC(=O)O)NC2=O (Ac-CQKFLAPCDSERKCCEGLVCRLWCKKKLW-NH2; disulfide 1-15, 8-20, 14-24)
IC50 [1]: 1230 nM | LED [2]: 3.3 µM | IC50 [3]: 20 nM | IC50 [4]: 1240 nM

CC(=O)N[C@H]1CSSC[C@@H]2NC(=O)[C@@H]3CSSC[C@@H](C(=O)N[C@@H](CCCCN)C(=O)N[C@@H](CCCCN)C(=O)N[C@@H](CCCCN)C(=O)N[C@@H](CC(C)C)C(=O)N[C@@H](Cc4c[nH]c5ccccc45)C(N)=O)NC(=O)[C@H](Cc4c[nH]c5ccccc45)NC(=O)[C@H](CC(C)C)NC(=O)[C@H](CCCCN)NC(=O)[C@H](CSSC[C@H](NC(=O)[C@@H]4CCCN4C(=O)[C@H](CCC(=O)O)NC(=O)[C@H](CC(C)C)NC(=O)[C@H](Cc4ccccc4)NC(=O)[C@H](CCCCN)NC(=O)[C@H](CCC(N)=O)NC1=O)C(=O)N[C@@H](CC(=O)O)C(=O)N[C@@H](CCC(=O)O)C(=O)N[C@@H](CCC(=O)O)C(=O)N[C@@H](CCCNC(=N)N)C(=O)N[C@@H](CCCCN)C(=O)N3)NC(=O)[C@H](C(C)C)NC(=O)[C@H](CC(C)C)NC(=O)CNC(=O)[C@H](CCC(=O)O)NC2=O (Ac-CQKFLEPCDEERKCCEGLVCKLWCKKKLW-NH2; disulfide 1-15, 8-20, 14-24)
IC50 [1]: > 17000 nM | LED [2]: 10 µM | IC50 [3]: 218 nM | IC50 [4]: > 17000 nM

CC(=O)N[C@H]1CSSC[C@@H]2NC(=O)[C@@H]3CSSC[C@@H](C(=O)N[C@@H](CCCCN)C(=O)N[C@@H](CCCCN)C(=O)N[C@@H](CCCCN)C(=O)N[C@@H](CC(C)C)C(=O)N[C@@H](Cc4c[nH]c5ccccc45)C(N)=O)NC(=O)[C@H](Cc4c[nH]c5ccccc45)NC(=O)[C@H](CC(C)C)NC(=O)[C@H](CCCNC(=N)N)NC(=O)[C@H](CSSC[C@H](NC(=O)[C@@H]4CCCN4C(=O)[C@H](CCC(=O)O)NC(=O)[C@H](CC(C)C)NC(=O)[C@H](Cc4ccccc4)NC(=O)[C@H](CCCCN)NC(=O)[C@H](CCC(N)=O)NC1=O)C(=O)N[C@@H](CC(=O)O)C(=O)N[C@@H](CO)C(=O)N[C@@H](CCC(=O)O)C(=O)N[C@@H](CCCNC(=N)N)C(=O)N[C@@H](CCCCN)C(=O)N3)NC(=O)[C@H](CCC(=O)O)NC(=O)[C@H](CC(C)C)NC(=O)CNC(=O)[C@H](CCC(=O)O)NC2=O (Ac-CQKFLEPCDSERKCCEGLECRLWCKKKLW-NH2; disulfide 1-15, 8-20, 14-24)
IC50 [1]: > 17000 nM | LED [2]: 10 µM | IC50 [3]: 97 nM | IC50 [4]: > 17000 nM

CC(=O)N[C@H]1CSSC[C@@H]2NC(=O)[C@@H]3CSSC[C@@H](C(=O)N[C@@H](CCCCN)C(=O)N[C@@H](CCCCN)C(=O)N[C@@H](CCCCN)C(=O)N[C@@H](CC(C)C)C(=O)N[C@@H](Cc4c[nH]c5ccccc45)C(N)=O)NC(=O)[C@H](Cc4c[nH]c5ccccc45)NC(=O)[C@H](CC(C)C)NC(=O)[C@H](CCCNC(=N)N)NC(=O)[C@H](CSSC[C@H](NC(=O)[C@@H]4CCCN4C(=O)[C@H](CCC(=O)O)NC(=O)[C@H](CC(C)C)NC(=O)[C@H](Cc4ccccc4)NC(=O)[C@H](CCCCN)NC(=O)[C@H](CCC(N)=O)NC1=O)C(=O)N[C@@H](CC(=O)O)C(=O)N[C@@H](CO)C(=O)N[C@@H](CCC(=O)O)C(=O)N[C@@H](CCCNC(=N)N)C(=O)N[C@@H](CCCCN)C(=O)N3)NC(=O)[C@H](C(C)C)NC(=O)[C@H](CC(C)C)NC(=O)CNC(=O)[C@H](CCC(=O)O)NC2=O (Ac-CQKFLEPCDSERKCCEGLVCRLWCKKKLW-NH2; disulfide 1-15, 8-20, 14-24)
IC50 [1]: 3940 nM | LED [2]: 3.3 µM | IC50 [3]: 43 nM | IC50 [4]: 4770 nM

CC(=O)N[C@H]1CSSC[C@@H]2NC(=O)[C@@H]3CSSC[C@@H](C(=O)N[C@@H](CCCCN)C(=O)N[C@@H](CCCCN)C(=O)N[C@@H](CCCCN)C(=O)N[C@@H](CC(C)C)C(N)=O)NC(=O)[C@H](Cc4c[nH]c5ccccc45)NC(=O)[C@H](C4CCCCC4)NC(=O)[C@H](CCCCN)NC(=O)[C@H](CSSC[C@H](NC(=O)[C@@H]4CCCN4C(=O)[C@H](CCC(=O)O)NC(=O)[C@H](CC(F)(F)F)NC(=O)[C@H](Cc4ccccc4)NC(=O)[C@H](CCCCN)NC(=O)[C@H](CCC(N)=O)NC1=O)C(=O)N[C@@H](CC(=O)O)C(=O)N[C@@H](CO)C(=O)N[C@@H](CCC(=O)O)C(=O)N[C@@H](CCCNC(=N)N)C(=O)N[C@@H](CCCCN)C(=O)N3)NC(=O)[C@H](CCC(=O)O)NC(=O)[C@H](CC(C)C)NC(=O)CNC(=O)[C@H](CCC(=O)O)NC2=O (Ac-CQKF[Abu(4,4,4-F3)]EPCDSERKCCEGLECK[Chg]WCKKKL-NH2; disulfide 1-15, 8-20, 14-24)
IC50 [1]: > 17000 nM | LED [2]: 100 µM | IC50 [3]: 240 nM | IC50 [4]: > 17000 nM

CC(=O)N[C@H]1CSSC[C@@H]2NC(=O)[C@@H]3CSSC[C@@H](C(=O)N[C@@H](CCCCN)C(=O)N[C@@H](CCCCN)C(=O)N[C@@H](CCCCN)C(=O)N[C@@H](CC(C)C)C(=O)N[C@@H](Cc4c[nH]c5ccccc45)C(N)=O)NC(=O)[C@H](Cc4c[nH]c5ccccc45)NC(=O)[C@H](C4CCCCC4)NC(=O)[C@H](CCCCN)NC(=O)[C@H](CSSC[C@H](NC(=O)[C@@H]4CCCN4C(=O)[C@H](CCC(=O)O)NC(=O)[C@H](CC(F)(F)F)NC(=O)[C@H](Cc4ccccc4)NC(=O)[C@H](CCCCN)NC(=O)[C@H](CCC(N)=O)NC1=O)C(=O)N[C@@H](CC(=O)O)C(=O)N[C@@H](CO)C(=O)N[C@@H](CCC(=O)O)C(=O)N[C@@H](CCCNC(=N)N)C(=O)N[C@@H](CCCCN)C(=O)N3)NC(=O)[C@H](CCC(=O)O)NC(=O)[C@H](CC(C)C)NC(=O)CNC(=O)[C@H](CCC(=O)O)NC2=O (Ac-CQKF[Abu(4,4,4-F3)]EPCDSERKCCEGLECK[Chg]WCKKKLW-NH2; disulfide 1-15, 8-20, 14-24)
IC50 [1]: > 17000 nM | LED [2]: 30 µM | IC50 [3]: 84 nM | IC50 [4]: > 17000 nM

CC(=O)N[C@H]1CSSC[C@@H]2NC(=O)[C@@H]3CSSC[C@@H](C(=O)N[C@@H](CCCCN)C(=O)N[C@@H](CCCCN)C(=O)N[C@@H](CCCCN)C(=O)N[C@@H](CC(C)C)C(=O)N[C@@H](Cc4c[nH]c5ccccc45)C(N)=O)NC(=O)[C@H](Cc4c[nH]c5ccccc45)NC(=O)[C@H](CC4CCCCC4)NC(=O)[C@H](CCCCN)NC(=O)[C@H](CSSC[C@H](NC(=O)[C@@H]4CCCN4C(=O)[C@H](CCC(=O)O)NC(=O)[C@H](CC(F)(F)F)NC(=O)[C@H](CC4CCCCC4)NC(=O)[C@H](CCCCN)NC(=O)[C@H](CCC(N)=O)NC1=O)C(=O)N[C@@H](CC(=O)O)C(=O)N[C@@H](CO)C(=O)N[C@@H](CCC(=O)O)C(=O)N[C@@H](CCCNC(=N)N)C(=O)N[C@@H](CCCCN)C(=O)N3)NC(=O)[C@H](CCC(=O)O)NC(=O)[C@H](CC(C)C)NC(=O)CNC(=O)[C@H](CCC(=O)O)NC2=O (Ac-CQK[Cha][Abu(4,4,4-F3)]EPCDSERKCCEGLECK[Cha]WCKKKLW-NH2; disulfide 1-15, 8-20, 14-24)
IC50 [1]: > 17000 nM | LED [2]: 33 µM | IC50 [3]: 76 nM | IC50 [4]: > 17000 nM

CC(=O)N[C@H]1CSSC[C@@H]2NC(=O)[C@@H]3CSSC[C@@H](C(=O)N[C@@H](CCCCN)C(=O)N[C@@H](CCCCN)C(=O)N[C@@H](CCCCN)C(=O)N[C@@H](CC(C)C)C(=O)N[C@@H](Cc4c[nH]c5ccccc45)C(N)=O)NC(=O)[C@H](Cc4c[nH]c5ccccc45)NC(=O)[C@H](C4CCCCC4)NC(=O)[C@H](CCCCN)NC(=O)[C@H](CSSC[C@H](NC(=O)[C@@H]4CCCN4C(=O)[C@H](CCC(=O)O)NC(=O)[C@H](CC(F)(F)F)NC(=O)[C@H](CC4CCCCC4)NC(=O)[C@H](CCCCN)NC(=O)[C@H](CCC(N)=O)NC1=O)C(=O)N[C@@H](CC(=O)O)C(=O)N[C@@H](CO)C(=O)N[C@@H](CCC(=O)O)C(=O)N[C@@H](CCCNC(=N)N)C(=O)N[C@@H](CCCCN)C(=O)N3)NC(=O)[C@H](CCC(=O)O)NC(=O)[C@H](CC(C)C)NC(=O)CNC(=O)[C@H](CCC(=O)O)NC2=O (Ac-CQK[Cha][Abu(4,4,4-F3)]EPCDSERKCCEGLECK[Chg]WCKKKLW-NH2; disulfide 1-15, 8-20, 14-24)
IC50 [1]: > 17000 nM | LED [2]: 30 µM | IC50 [3]: 109 nM | IC50 [4]: > 17000 nM
